Test results from patent US20240083857A1, “2-Methyl-Quinazolines” (Bayer Pharma Aktiengesellschaft, priority 2017, published 2024).

Experiments:
[1] = target: K-Ras^G12C : hSOS1 interaction (Homo sapiens, UniProt Q07889); experiment: Biochemical assay 1: K-Ras^G12C interaction assay with hSOS1 (HTRF); format: binding; conditions: E-notation values; unit inferred; read-out: Assay 1 (KRAS-SOS interaction) IC50
[2] = target: Epidermal Growth Factor Receptor (EGFR) (Homo sapiens (Human), UniProt P00533); experiment: EGFR kinase assay (TR-FRET); format: biochemical; conditions: E-notation values; unit inferred; read-out: EGFR-assay IC50
Outline: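 Read-out is the 665/620 nm HTRF ratio, from a Tb-cryptate anti-phosphotyrosine antibody and streptavidin-XL665 bound to phosphorylated biotin-peptide substrate. The enzyme, A431-derived EGFR (~3 U/ml), was given 15 min compound pre-binding at 22° C in Hepes pH 7.0 with Mg2+/Mn2+ before reaction.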

Sequence of Epidermal Growth Factor Receptor (EGFR) (P00533 25-1210): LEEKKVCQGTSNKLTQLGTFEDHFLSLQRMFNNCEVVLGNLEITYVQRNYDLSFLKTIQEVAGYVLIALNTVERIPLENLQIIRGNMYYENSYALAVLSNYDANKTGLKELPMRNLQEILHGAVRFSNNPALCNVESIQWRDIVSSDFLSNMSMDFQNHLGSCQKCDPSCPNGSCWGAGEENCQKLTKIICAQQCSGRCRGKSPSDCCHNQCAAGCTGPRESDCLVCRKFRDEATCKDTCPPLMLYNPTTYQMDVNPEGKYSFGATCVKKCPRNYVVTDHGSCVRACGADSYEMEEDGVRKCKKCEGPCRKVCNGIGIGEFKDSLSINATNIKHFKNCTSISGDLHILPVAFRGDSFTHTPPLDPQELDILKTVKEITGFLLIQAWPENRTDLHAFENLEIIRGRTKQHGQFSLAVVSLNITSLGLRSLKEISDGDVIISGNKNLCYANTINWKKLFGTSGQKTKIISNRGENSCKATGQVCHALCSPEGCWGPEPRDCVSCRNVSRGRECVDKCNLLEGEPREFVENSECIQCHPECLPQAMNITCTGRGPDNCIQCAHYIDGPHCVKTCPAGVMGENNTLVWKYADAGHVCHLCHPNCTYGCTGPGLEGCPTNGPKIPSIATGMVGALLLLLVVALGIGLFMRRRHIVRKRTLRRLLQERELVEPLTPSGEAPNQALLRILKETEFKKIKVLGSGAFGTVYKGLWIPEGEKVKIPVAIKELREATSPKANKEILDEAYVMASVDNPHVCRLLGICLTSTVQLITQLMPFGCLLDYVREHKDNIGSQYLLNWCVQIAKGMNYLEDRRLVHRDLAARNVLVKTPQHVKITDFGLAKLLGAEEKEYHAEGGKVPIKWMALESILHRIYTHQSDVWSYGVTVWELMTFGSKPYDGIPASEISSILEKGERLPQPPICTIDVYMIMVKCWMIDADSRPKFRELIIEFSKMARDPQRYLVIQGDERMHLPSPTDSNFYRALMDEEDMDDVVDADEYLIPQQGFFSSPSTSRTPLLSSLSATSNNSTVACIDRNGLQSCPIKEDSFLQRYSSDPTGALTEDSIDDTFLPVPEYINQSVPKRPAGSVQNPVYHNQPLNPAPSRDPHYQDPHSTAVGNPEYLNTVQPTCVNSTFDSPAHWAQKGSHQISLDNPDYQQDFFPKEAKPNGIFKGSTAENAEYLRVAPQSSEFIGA

SMILES	IC50 [1] [µM]	IC50 [2] [µM]
Cc1nc(NC(C)c2ccc(-c3ccccc3CN(C)C)s2)c2cc(N3CCC(N(C)C)C3)ccc2n1 (stereo not shown) [Example 418, N-[1-(5-{2-[(dimethylamino)methyl]phenyl}thiophen-2-yl)ethyl]-6-[3-(dimethylamino)pyrrolidin-1-yl]-2-methylquinazolin-4-amine]	0.0866	> 20
Cc1nc(NC(C)c2ccc(Br)s2)c2cc(N3CCCC3)ccc2n1 (stereo not shown) [Example 419, N-[1-(5-bromothiophen-2-yl)ethyl]-2-methyl-6-(pyrrolidin-1-yl)quinazolin-4-amine]	6.45	> 20
CC(=O)Nc1ccc2nc(C)nc(NC(C)c3ccc(-c4ccccc4CN(C)C)s3)c2c1 (stereo not shown) [Example 420, N-(4-{[1-(5-{2-[(dimethylamino)methyl]phenyl}thiophen-2-yl)ethyl]amino}-2-methylquinazolin-6-yl)acetamide]	0.303	> 20
COc1ccc(-c2ccc(C(C)Nc3nc(C)nc4cc(OC)c(OC)cc34)s2)c(C)c1 (stereo not shown) [Example 422, 6,7-dimethoxy-N-{1-[5-(4-methoxy-2-methylphenyl)thiophen-2-yl]ethyl}-2-methylquinazolin-4-amine]	1.47	> 20
Cc1nc(NC(C)c2ccc(-c3ccccc3CN(C)C)s2)c2cc(N)ccc2n1 (stereo not shown) [Example 423, N4-[1-(5-{2-[(dimethylamino)methyl]phenyl}-2-thienyl)ethyl]-2-methylquinazoline-4,6-diamine]	0.204	> 20
Cc1nc(NC(C)c2ccc(Br)s2)c2cc(N3CCN(Cc4cccnc4)CC3)ccc2n1 (stereo not shown) [Example 424, N-[1-(5-bromothiophen-2-yl)ethyl]-2-methyl-6-[4-(pyridin-3-ylmethyl)piperazin-1-yl]quinazolin-4-amine]	1.59	> 20
Cc1nc(NC(C)c2ccc(Br)s2)c2cc(NCCN3CCOCC3)ccc2n1 (stereo not drawn) [Example 425, N4-[l-(5-bromo-2-thienyl)ethyl]-2-methyl-N6-[2-(morpholin-4-yl)ethyl]quinazoline-4,6-diamine]	5.82	> 20
Cc1nc(NC(C)c2ccc(-c3ccccc3CN(C)C)s2)c2cc(N3CCN(Cc4cccnc4)CC3)ccc2n1 (stereo not shown) [Example 426, N-[1-(5-{2-[(dimethylamino)methyl]phenyl}thiophen-2-yl)ethyl]-2-methyl-6-[4-(pyridin-3-ylmethyl)piperazin-1-yl]quinazolin-4-amine]	0.0332	4.95
CC(=O)NCCNc1ccc2nc(C)nc(NC(C)c3ccc(-c4ccccc4CN(C)C)s3)c2c1 (stereo not shown) [Example 427, N-{2-[(4-{[1-(5-{2-[(dimethylamino)methyl]phenyl}thiophen-2-yl)ethyl]amino}-2-methylquinazolin-6-yl)amino]ethyl}acetamide]	0.0584	> 20
COc1cc2nc(C)nc(NC(C)c3sc(Br)cc3Cl)c2cc1OC (stereo not shown) [Example 428, N-[1-(5-bromo-3-chlorothiophen-2-yl)ethyl]-6,7-dimethoxy-2-methylquinazolin-4-amine]	0.916	> 20
COc1cc2nc(C)nc(NC(C)c3sc(-c4ccccc4CNC(=O)OC(C)(C)C)cc3Cl)c2cc1OC (stereo not shown) [Example 429, tert-butyl [2-(4-chloro-5-{1-[(6,7-dimethoxy-2-methylquinazolin-4-yl)amino]ethyl}thiophen-2-yl)benzyl]carbamate]	6.09	> 20
COc1cc2nc(C)nc(NC(C)c3cc(Cl)c(-c4ccccc4CN)s3)c2cc1OC (stereo not shown) [Example 430, N-[1-{5-[2-(aminomethyl)phenyl]-4-chlorothiophen-2-yl}ethyl]-6,7-dimethoxy-2-methylquinazolin-4-amine]	0.594	> 20
COc1cc2nc(C)nc(NC(C)c3cc(Cl)c(-c4ccccc4CN(C)C)s3)c2cc1OC (stereo not shown) [Example 431, N-[1-(4-chloro-5-{2-[(dimethylamino)methyl]phenyl}thiophen-2-yl)ethyl]-6,7-dimethoxy-2-methylquinazolin-4-amine]	0.324	> 20
COc1cc2nc(C)nc(NC(C)c3cc(Cl)c(Br)s3)c2cc1OC (stereo not shown) [Example 432, N-[1-(5-bromo-4-chlorothiophen-2-yl)ethyl]-6,7-dimethoxy-2-methylquinazolin-4-amine]	16.7	> 20
Cc1nc(NC(C)c2ccc(-c3ccccc3CN(C)C)s2)c2cc(NCCN3CCOCC3)ccc2n1 (stereo not shown) [Example 433, N4-[1-(5-{2-[(dimethylamino)methyl]phenyl}-2-thienyl)ethyl]-2-methyl-N6-[2-(morpholin-4-yl)ethyl]quinazoline-4,6-diamine]	0.0771	> 20
Cc1nc(NC(C)c2ccc(Br)s2)c2cc(N3CCN(C)C(=O)C3)ccc2n1 (stereo not shown) [Example 434, 4-(4-{[1-(5-bromothiophen-2-yl)ethyl]amino}-2-methylquinazolin-6-yl)-1-methylpiperazin-2-one]	2.84	16.6
Cc1nc(NC(C)c2ccc(-c3ccccc3CN(C)C)s2)c2cc(N3CCN(C)C(=O)C3)ccc2n1 (stereo not shown) [Example 435, 4-(4-{[1-(5-{2-[(dimethylamino)methyl]phenyl}thiophen-2-yl)ethyl]amino}-2-methylquinazolin-6-yl)-1-methylpiperazin-2-one]	0.0844	> 20
COC(=O)C(C)(C)c1ccccc1-c1ccc(C(C)Nc2nc(C)nc3cc(OC)c(OC)cc23)s1 (stereo not shown) [Example 436, methyl 2-[2-(5-{1-[(6,7-dimethoxy-2-methylquinazolin-4-yl)amino]ethyl}thiophen-2-yl)phenyl]-2-methylpropanoate]	2.39	> 20
COc1cc2nc(C)nc(NC(C)c3sc(-c4ccccc4CN)cc3Cl)c2cc1OC (stereo not shown) [Example 437, N-[1-{5-[2-(aminomethyl)phenyl]-3-chlorothiophen-2-yl}ethyl]-6,7-dimethoxy-2-methylquinazolin-4-amine]	0.145	> 20
Cc1nc(NC(C)c2ccc(-c3ccccc3CN(C)C)s2)c2cc(NS(C)(=O)=O)ccc2n1 (stereo not shown) [Example 438, N-(4-{[1-(5-{2-[(dimethylamino)methyl]phenyl}thiophen-2-yl)ethyl]amino}-2-methylquinazolin-6-yl)methanesulfonamide]	0.0902	> 20
COc1ccc(-c2ccc(C(C)Nc3nc(C)nc4cc(OC)c(OC)cc34)s2)c(CN(C)C)c1 (stereo not shown) [Example 439, N-[1-(5-{2-[(dimethylamino)methyl]-4-methoxyphenyl}thiophen-2-yl)ethyl]-6,7-dimethoxy-2-methylquinazolin-4-amine]	0.277	> 20
Cc1nc(NC(C)c2ccc(-c3ccccc3CN(C)C)s2)c2cc(NC(=O)N(C)C)ccc2n1 (stereo not shown) [Example 440, 3-(4-{[1-(5-{2-[(dimethylamino)methyl]phenyl}thiophen-2-yl)ethyl]amino}-2-methylquinazolin-6-yl)-1,1-dimethylurea]	0.706	> 20
Cc1nc(NC(C)c2ccc(Br)s2)c2cc(N3CCN(Cc4ccccc4)C(=O)C3)ccc2n1 (stereo not shown) [Example 441, 1-benzyl-4-(4-{[1-(5-bromothiophen-2-yl)ethyl]amino}-2-methylquinazolin-6-yl)piperazin-2-one]	16.1	> 20
COc1cc2nc(C)nc(NC(C)c3ccc(-c4ccc(C)cc4CN(C)C)s3)c2cc1OC (stereo not shown) [Example 442, N-[1-(5-{2-[(dimethylamino)methyl]-4-methylphenyl}thiophen-2-yl)ethyl]-6,7-dimethoxy-2-methylquinazolin-4-amine]	0.0453	> 20
COc1cc2nc(C)nc(NC(C)c3ccc(-c4ccc(C5CC5)cc4CN(C)C)s3)c2cc1OC (stereo not shown) [Example 443, N-[1-(5-{4-cyclopropyl-2-[(dimethylamino)methyl]phenyl}thiophen-2-yl)ethyl]-6,7-dimethoxy-2-methylquinazolin-4-amine]	0.112	> 20
COc1cc2nc(C)nc(NC(C)c3ccc(-c4ccccc4C(C)(C)N)s3)c2cc1OC (stereo not shown) [Example 455, N-[1-{5-[2-(2-aminopropan-2-yl)phenyl]thiophen-2-yl}ethyl]-6,7-dimethoxy-2-methylquinazolin-4-amine]	0.397	> 20
COc1cc2nc(C)nc(NC(C)c3ccc(-c4ccccc4CN(C)CC#N)s3)c2cc1OC (stereo not shown) [Example 456, {[2-(5-{1-[(6,7-dimethoxy-2-methylquinazolin-4-yl)amino]ethyl}thiophen-2-yl)benzyl](methyl)amino}acetonitrile]	0.162	> 20
CNC(=O)Nc1ccc2nc(C)nc(NC(C)c3ccc(-c4ccccc4CN(C)C)s3)c2c1 (stereo not shown) [Example 457, 1-(4-{[1-(5-{2-[(dimethylamino)methyl]phenyl}thiophen-2-yl)ethyl]amino}-2-methylquinazolin-6-yl)-3-methylurea]	0.295	> 20
Cc1nc(NC(C)c2ccc(-c3ccccc3CN(C)C)s2)c2cc(N3CCN(Cc4ccccc4)C(=O)C3)ccc2n1 (stereo not shown) [Example 458, 1-benzyl-4-(4-{[1-(5-{2-[(dimethylamino)methyl]phenyl}thiophen-2-yl)ethyl]amino}-2-methylquinazolin-6-yl)piperazin-2-one]	0.048	> 20
